Source: patent US20100144890A1, “USE OF A SURFACTANT FOR THE PREPARATION OF A FORMULATION FOR THE TREATMENT OF ADIPOSE DISEASES” (priority 2007, published 2010)
Read-outs that look alike come from different tables or passages of the source.

Assays:
Assay type in all cases: cell-based
[1] = system: Adipocytes (method: 3T3-L1 adherent cells); experiment: Calcein-AM cytotoxicity / cell viability assay
Protocol: Cytotoxicity Assay in Adherent Cells (3T3-L1) using the Calcein-AM Method:
[…] […] […] Then, the wells were washed and the cells incubated with Calcein-AM (1 μM) (Molecular Probes) for 30 min. Then the fluorescence of viable cells was detected in a microtitre plate reader (TECAN Genius Pro). Using this method the uptake of Calcein-AM by viable cells is measured. Calcein-AM his hydrolysed by cellular esterases and then the fluorescence emitted by calcein is detected in the plate reader (excitation: 490 nm, emission: 515 nm)
[…] In this type of assay the higher RFU (relative fluorescent unit) correspond to viable cells.

[2] = system: differentiated human primary adipocytes; experiment: LDH release cytotoxicity assay (CytoTox-ONE) in differentiated adipocytes
Protocol: (§1) Primary human preadipocytes were obtained from Promocell (Heidelberg, Germany). The Order No is C-12731 and the Lot-No 5112201 (abdomen, person).
(§2) Human preadipocytes cells were maintained in Preadipocyte Growth Medium (DMEM; BioWhitaker Cat: BE12-604F/U1; Lot N° 6MB0130 containing 10% heat-inactivated FCS and 1% penicillin-streptomycin) at 37° C. in a humidified atmosphere of 5% CO2. The cells were expanded in several T75 flasks to reach 60-80% confluence. To differentiate the preadipocytes (10^4 cells/well) were grown in 96 well plates to reach confluence. At this point (day 0), cells were switched to differentiation medium (DMEM, 10% FBS, 0.25 μM dexamethasone, 0.25 mM IBMX, and […] insulin) for 3 days, with one medium change in between. On day 3, the dexamethasone and IBMX was removed leaving insulin on the cells for an additional 4 days, changing the medium every 2 days. Thereafter, the cells were maintained in the original propagation DMEM, changing medium every 2-3 days until use. Plates where cells are >75% differentiated were used for experiments (day 10 post-induction). Adipocytes are round and full of easily distinguishable fat globules after 7 days of culture.
(§3) Cytotoxicity assays: The CytoTox-ONE™ Homogeneous Membrane Integrity Assay from Promega was used to study LDH release (The Lot-No 234242/27/09/08). Differentiated adipocytes were treated with the test compounds for either 24 or 48 hours and the release of LDH detected using the fluorimetric assay CytoTox-ONE (see above) according to the manufacturer's instructions. Maximum LDH release was determined by complete lysis of cells using 0.1% Triton X-100. Control cells treated with water alone were used to determine the baseline level of LDH release (0% cell death). The fluorescence was detected in a Genius Pro apparatus using specific 96 microwells plates for fluorescence. We used excitation filters in the 530-570 nm range and emission filters in the 580-620 nm range.
(§4) The percentages cytotoxicity by LDH release were calculated according to the manufacturer's instruction (http://www.promega.com/tbs/tb306/tb306.pdf)
(§5) According to this calculation the spontaneous release in untreated cells may indicate some cytotoxicity in untreated cells. […] This type of calculation may induce to misinterpretations and therefore the specific cytotoxicity was calculated according to the following formula: […]
S.C. values below 0% were considered arbitrary as 0% of substance-induced cytotoxicity.
To confirm the cytotoxic activity of the test substance at certain concentrations, undifferentiated (24 h treatment) and differentiated human primary adipocytes the cultures were treated with the indicated dilutions during 24 h and 48 h and the release of LDH measured in the supernatants.

[3] = system: Primary human preadipocytes; experiment: LDH release cytotoxicity assay (CytoTox-ONE) in undifferentiated preadipocytes
Protocol: as §1
as §2, with “Adipocytes are round and full of easily distinguishable fat globules after 7 days of culture.” left out
as §3, with “Control cells treated with water alone were used to determine the baseline level of LDH release (0% cell death).” left out, “We used excitation filters in the 530-570 nm range and emission filters in the 580-620 nm range.” left out
as §4, §5

[4] = Table 2, dilution 1:12800, 24 h

| Compound | Adipocytes (LDH) 24 h, toxicity ([2]; Table 2, dilution 1:50, 24 h) | Adipocytes (LDH) 24 h, toxicity ([2]; Table 2, dilution 1:100, 24 h) | Adipocytes (LDH) 24 h, toxicity ([2]; Table 2, dilution 1:200, 24 h) | Adipocytes (LDH) 24 h, toxicity ([2]; Table 2, dilution 1:800, 24 h) | Adipocytes (LDH) 24 h, toxicity ([2]; Table 2, dilution 1:1600, 24 h) | Adipocytes (LDH) 24 h, toxicity ([2]; Table 2, dilution 1:3200, 24 h) | Adipocytes (LDH) 24 h, toxicity ([2]; Table 2, dilution 1:6400, 24 h) | Adipocytes (LDH) 24 h, toxicity [2, 4] | Adipocytes (Calcein-AM) 24 h, toxicity ([1]; dilution 1:50) | Adipocytes (Calcein-AM) 24 h, toxicity ([1]; dilution 1:100) | Adipocytes (Calcein-AM) 24 h, toxicity ([1]; dilution 1:200) | Adipocytes (Calcein-AM) 24 h, toxicity ([1]; dilution 1:400) | Adipocytes (Calcein-AM) 24 h, toxicity ([1]; dilution 1:6400) | Adipocytes (Calcein-AM) 24 h, toxicity ([1]; dilution 1:12800) | other results |
| --- | --- | --- | --- | --- | --- | --- | --- | --- | --- | --- | --- | --- | --- | --- | --- |
| CCCCCCCCCCCCOS(=O)(=O)[O-].[Na+] [sodium laurylsulfate] |  |  |  |  |  |  |  |  |  |  |  |  |  |  | potency compared with the other inventive substances ([1]; cytotoxicity on adipocytes): even more potent; Adipocytes (Calcein-AM) 6 h, toxicity ([1]; dilution 1:4000): Toxic; Adipocytes (Calcein-AM) 24 h, toxicity ([1]; dilution 1:4000): Toxic; Adipocytes (Calcein-AM) 6 h, toxicity ([1]; dilution 1:16,000): Toxic; Adipocytes (Calcein-AM) 24 h, toxicity ([1]; dilution 1:16,000): Toxic; Adipocytes (Calcein-AM) 6 h, toxicity ([1]; dilution 1:512000): Non-Toxic; Adipocytes (Calcein-AM) 24 h, toxicity ([1]; dilution 1:512000): Non-Toxic |
| polyethoxylated castor oil [Test Substance 2] | Toxic | Toxic | Toxic | Non-toxic | Non-toxic | Non-toxic | Non-toxic | Non-toxic | Toxic | Toxic | Toxic | Toxic | Non-toxic | Non-toxic | Differentiated Adipocytes (LDH) 24 h, cytotoxicity ([2]; Table 1, dilution 1:512, 24 h): Toxic (56.1%); Differentiated Adipocytes (LDH) 24 h, toxicity ([2]; Table 1, dilution 1:10000, 24 h): Non-toxic; Adipocytes (LDH) 24 h, cytotoxicity ([2]; Table 2, dilution 1:400, 24 h): Toxic (43.6%); Differentiated Adipocytes (LDH) 48 h, cytotoxicity ([2]; dilution 1:512, 48 h): Toxic (100%); Differentiated Adipocytes (LDH) 48 h, cytotoxicity ([2]; dilution 1:10000, 48 h): toxic (20.3%); Preadipocytes (LDH) 24 h, cytotoxicity ([3]; dilution 1:512, 24 h treatment): Toxic (32.6%); Preadipocytes (LDH) 24 h, toxicity ([3]; dilution 1:10000, 24 h treatment): Non-toxic |
| polysorbate 80 [Test Substance 1] | Toxic | Toxic | Toxic | Toxic | Non-toxic | Non-toxic | Non-toxic | Non-toxic | Toxic | Toxic | Toxic | Toxic | Non-toxic | Non-toxic | Differentiated Adipocytes (LDH) 24 h, cytotoxicity [2]: Toxic (42.8%); Differentiated Adipocytes (LDH) 48 h, cytotoxicity [2]: Toxic (100%); Adipocytes (LDH) 24 h, toxicity ([2]; Table 2, dilution 1:400, 24 h): Toxic; Adipocytes (Calcein-AM) 24 h, toxicity ([1]; dilution 1:800): Toxic; Adipocytes (Calcein-AM) 24 h, toxicity ([1]; dilution 1:3200): Non-toxic; Preadipocytes (LDH) 24 h, cytotoxicity [3]: Toxic (38.1%) |
